Legend:
Angiotensin II Receptor = biological target: T1, Angiotensin II Receptor (Bos taurus, UniProt P25104); test: Receptor Binding Assay: Binding of [^125 I](Sar^1,Ile^8)AngII to beef adrenal cortex membranes; conditions: 60 min, room temperature
T1 construct: The brownish tissue forming the adrenal cortex is scraped off and finely minced with scissors before homogenization; from tissue; host or cells: beef adrenal cortex, microsomal membranes (100,000×g pellet); fresh glands from a local slaughter house (Maxwell-Cohen)
T1 sequence (P25104 1-359): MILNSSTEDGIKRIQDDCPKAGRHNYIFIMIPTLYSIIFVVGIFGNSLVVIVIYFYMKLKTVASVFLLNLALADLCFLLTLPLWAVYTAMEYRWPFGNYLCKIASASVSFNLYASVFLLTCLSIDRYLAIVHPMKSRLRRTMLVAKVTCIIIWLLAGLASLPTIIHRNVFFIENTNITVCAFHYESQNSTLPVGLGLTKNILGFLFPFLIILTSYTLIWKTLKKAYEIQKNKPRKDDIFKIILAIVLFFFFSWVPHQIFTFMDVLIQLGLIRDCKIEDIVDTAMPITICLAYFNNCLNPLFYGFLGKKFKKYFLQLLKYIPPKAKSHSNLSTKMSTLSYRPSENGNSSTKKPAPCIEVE
Description: Beef adrenals are obtained from a local slaughter house (Maxwell-Cohen). [^125 […]. 2200 Ci/mmole, is purchased from Dupont (NEN®, Boston, Mass.). All unlabeled AngII analogs, Dimethylsulfoxide (DMSO), nucleotides, bovine serum albumin (BSA) are purchased from Sigma Chemical Co., St. Louis, Mo. U.S.A. […] Approximately sixteen (16) to twenty (20) beef adrenal glands are processed as follows: fresh adrenal glands received on crushed ice are cleaned of fatty tissues and the tough membranes encapsulating the glands are removed and discarded. The brownish tissue forming the adrenal cortex is scraped off and finely minced with scissors before homogenization. Care is taken to avoid contamination with medullary tissue during dissection. The scraped cortices are suspended in twenty volumes of an ice-cold buffer medium consisting of 10 mM Tris.HCl (pH 7.4 at 22° C.) and containing 1.0 mM EDTA and 0.2M sucrose. Unless otherwise indicated, all subsequent operations are done at 4° C. […] The homogenate is centrifuged first at low speed (3,000×g) for 10 minutes. […] This P2 pellet is discarded and the liquid phase is carefully decanted off in clean centrifuge tubes and recentrifuged at high speed (100,000×g) for 60 minutes. The translucent final pellet is harvested and combined in a small volume (20-50.0 ml) of 50.0 mM Tris.HCl buffer, pH 7.2. A 100 ul aliquot is withdrawn and the protein content of the preparation is determined by the Lowry's method (Lowry, O. H., Rosebrough, […]. and Randall, R. J., Protein measurement with Folin phenol reagent. J. Biol. Chem., […], 265-275, 1951). The pelleted membrane is reconstituted in 50.0 mM Tris.HCl buffer containing 0.1 mM of phenylmethylsulfonyl fluoride (PMSF) to give approximately a protein concentration of 2.5 mg per ml of tissue suspension. […] Receptor Binding Assay: […] In competition studies, experimental compounds are diluted in dimethylsulfoxide (DMSO) and added in 20 ul to wells before the introduction of tissue membranes. […] Assays are performed in triplicate. The wells are left undisturbed for 60 minutes at room temperature. Following incubation, all wells are harvested at once with a Brandel® Harvester especially designed for a 96 well plate (Brandel® Biomedical Research & Development Labs. Inc., Gaithersburg, Md., U.S.A.). The filter discs are washed with 10×1.0 ml of cold 0.9% NaCl to remove unbound ligand. Presoaking the filter sheet in 0.1% polyethyleneimine in normal saline (PEI/Saline) greatly reduces the radioactivity retained by the filter blanks. This method is routinely used. The filters are removed from the filter grid and counted in a Parkard® Cobra Gamma Counter for 1 minutes. (Packard Instrument Co., Downers Grove, Ill, U.S.A.). The binding data are analyzed by the non-linear interactive "LUNDON-1" program (LUNDON SOFTWARE Inc., Cleveland, Ohio U.S.A.).

[1] = tested on: ANGIOTENSIN II VASOPRESSOR RESPONSE; test: AII Challenge: blockade of angiotensin II vasopressor response in conscious SHR; format: in vivo, rat (Conscious Male Okamoto-Aoki SHR); conditions: SHR n=2, 3 mg/kg i.v.
Description: By administering a compound of this invention to a rat, and then challenging with angiotensin II, a blockage of the vasopressor response is realized.
Conscious Male Okamoto-Aoki SHR, 16-20 weeks old, weighing approximately 330 g are purchased from Charles River Labs (Wilmington, Mass.). Conscious rats are restrained in a supine position with elastic tape. The area at the base of the tail is locally anesthetized by subcutaneous infiltration with 2% procaine. The ventral caudal artery and vein are isolated, and a cannula made of polyethylene (PE) 10-20 tubing (fused together by heat) is passed into the lower abdominal aorta and vena cava, respectively. The cannula is secured, heparinized (1,000 I.U./ml), sealed and the wound is closed. The animals are placed in plastic restraining cages in an upright position. The cannula is attached to a Statham P23Db pressure transducer, and pulsatile blood pressure is recorded to 10-15 minutes with a Gould Brush recorder. (Chan et al., (Drug Development Res., 18:75-94, 1989).
Angiotensin II (human sequence, Sigma Chem. Co., St. Louis, MO) of 0.05 and 0.1 ug/kg i.v. is injected into all rats (predosing response). Then a test compound, vehicle or a known angiotensin II antagonist is administered i.v., i.p. or orally to each set of rats. The two doses of angiotensin II are given to each rat again at 30, 60, 90, 120, 180, 240 and 300 minutes post dosing the compound or vehicle. The vasopressor response of angiotensin II is measured for the increase in systolic blood pressure in mmHg. The percentage of antagonism or blockade of the vasopressor response of angiotensin II by a compound is calculated using the vasopressor response (increase in systolic blood pressure) of angiotensin II of each rat predosing the compound as 100%. A compound is considered active if at 30 mg/kg i.v. it antagonized at least 50% of the response.

[2] = AII 0.01 mcg/kg IV (so in the source), 30 min post dose
[3] = AII 0.05 mcg/kg IV, 30 min post dose
[4] = AII 0.05 mcg/kg IV, 60 min post dose
[5] = AII 0.05 mcg/kg IV, 90 min post dose
[6] = AII 0.05 mcg/kg IV, 120 min post dose
[7] = AII 0.05 mcg/kg IV, 180 min post dose
[8] = AII 0.05 mcg/kg IV, 240 min post dose
[9] = AII 0.05 mcg/kg IV, 300 min post dose
[10] = AII 0.1 mcg/kg IV, 60 min post dose
[11] = AII 0.1 mcg/kg IV, 90 min post dose
[12] = AII 0.1 mcg/kg IV, 120 min post dose
[13] = AII 0.1 mcg/kg IV, 180 min post dose
[14] = AII 0.1 mcg/kg IV, 240 min post dose
[15] = AII 0.1 mcg/kg IV, 300 min post dose
[16] = AII 0.1 mcg/kg IV, 30 min post dose

IC50 (Angiotensin II Receptor) [nM]	SMILES	% Inhibition of AII vasopressor response [1, 3] [%]	Average Change (systolic blood pressure response to AII) [1, 3] [mmHg]	% Inhibition of AII vasopressor response [1, 4] [%]	Average Change (systolic blood pressure response to AII) [1, 4] [mmHg]	% Inhibition of AII vasopressor response [1, 5] [%]	Average Change (systolic blood pressure response to AII) [1, 5] [mmHg]	% Inhibition of AII vasopressor response [1, 6] [%]	Average Change (systolic blood pressure response to AII) [1, 6] [mmHg]	% Inhibition of AII vasopressor response [1, 7] [%]	Average Change (systolic blood pressure response to AII) [1, 7] [mmHg]	% Inhibition of AII vasopressor response [1, 8] [%]	Average Change (systolic blood pressure response to AII) [1, 8] [mmHg]	% Inhibition of AII vasopressor response [1, 9] [%]	Average Change (systolic blood pressure response to AII) [1, 9] [mmHg]	% Inhibition of AII vasopressor response [1, 10] [%]	Average Change (systolic blood pressure response to AII) [1, 10] [mmHg]	% Inhibition of AII vasopressor response [1, 11] [%]	Average Change (systolic blood pressure response to AII) [1, 11] [mmHg]	% Inhibition of AII vasopressor response [1, 12] [%]	also measured
110	CCCCc1nc2ccc(C(O)C3CCCS3(=O)=O)cc2c(=O)n1Cc1ccc(-c2ccccc2-c2nn[nH]n2)cc1 (single isomer, unassigned; isomer 1) [Example 15, 2-Butyl-6-[hydroxy(tetrahydro-2-thienyl)methyl-3-[[2'-(1H-tetrazol-5-yl)[1,1'-biphenyl]-4-yl]methyl]-4(3H)-quinazolinone S,S-dioxide isomer 1]	88	5	73	11	83	7	32	27.5	42	23.5	38	25	26	30	63	18.5	54	23	45	% Inhibition of AII vasopressor response [1, 2]: 75%; Average Change (systolic blood pressure response to AII) [1, 2]: 12.5 mmHg; Average Change (systolic blood pressure response to AII) [1, 12]: 27.5 mmHg; % Inhibition of AII vasopressor response [1, 13]: 50%; Average Change (systolic blood pressure response to AII) [1, 13]: 25 mmHg; % Inhibition of AII vasopressor response [1, 14]: 50%; Average Change (systolic blood pressure response to AII) [1, 14]: 25 mmHg; % Inhibition of AII vasopressor response [1, 15]: 45%; Average Change (systolic blood pressure response to AII) [1, 15]: 27.5 mmHg
40	CCCCc1nc2ccc(C(C)(O)C3CCN(C)C3=O)cc2c(=O)n1Cc1ccc(-c2ccccc2-c2nn[nH]n2)cc1 (single isomer, unassigned; isomer 1) [Example 47, 2-Butyl-6-1-hydroxy-1-(1-methyl-2-oxo-3-pyrrolidinyl)ethyl]-3-[[2'-[1H(tetrazol-5yl)-[1,1'-biphenyl]-4-yl]methyl-4(3H)-quinazolinone isomer 1]	75	10	75	10	63	15	69	12.5	75	10	38	25	29	28.5	65	15	76	10	82	% Inhibition of AII vasopressor response [1, 16]: 73%; Average Change (systolic blood pressure response to AII) [1, 16]: 11.5 mmHg; Average Change (systolic blood pressure response to AII) [1, 12]: 7.5 mmHg; % Inhibition of AII vasopressor response [1, 13]: 59%; Average Change (systolic blood pressure response to AII) [1, 13]: 17.5 mmHg; % Inhibition of AII vasopressor response [1, 14]: 29%; Average Change (systolic blood pressure response to AII) [1, 14]: 30 mmHg; % Inhibition of AII vasopressor response [1, 15]: 18%; Average Change (systolic blood pressure response to AII) [1, 15]: 35 mmHg
430	CCCCc1nc2ccc(C(O)C3CCCCN(C)C3=O)cc2c(=O)n1Cc1ccc(-c2ccccc2-c2nn[nH]n2)cc1 (single isomer, unassigned; isomer 1) [Example 54, 2-Butyl-6-[(hexahydro-1-methyl-2-oxo-1H-azepin-3-yl)hydroxymethyl]-3-[[2'-(1H-tetrazol-5-yl)[1,1'biphenyl]-4-yl]methyl-4-(3H)-quinazolinone isomer 1]	–	–	–	–	–	–	–	–	–	–	–	–	–	–	–	–	–	–	–	–
150	CCCCc1nc2ccc(C(O)C3CCCCN(C)C3=O)cc2c(=O)n1Cc1ccc(-c2ccccc2-c2nn[nH]n2)cc1 (single isomer, unassigned; isomer 2) [Example 55, 2-Butyl-6-[(hexahydro-1-methyl-2-oxo-1H-azepin-3-yl)hydroxymethyl]-3-[[2'-(1H-tetrazol-5-yl)[1,1'-biphenyl]-4-yl]methyl-4(3H)quinazolinone isomer 2]	–	–	–	–	–	–	–	–	–	–	–	–	–	–	–	–	–	–	–	–
130	CCCCc1nc2ccc(C(O)C3CCCO3)cc2c(=O)n1Cc1ccc(-c2ccccc2-c2nn[nH]n2)cc1 (stereo not shown) [Example 28]	–	–	–	–	–	–	–	–	–	–	–	–	–	–	–	–	–	–	–	–

— patent US5288720A, “Angiotensin II receptor blocking 2,3,6 substituted quinazolinones” (American Cyanamid Company, priority 1993, dated 1994)
